The target in the assay is 4-hydroxyphenylpyruvate dioxygenase (Homo sapiens, UniProt P32754). The assay is described as follows: Inhibition of human recombinant His-tagged HPPD expressed in Escherichia coli BL21(DE3) by UV/visible plate reader analysis.
4-hydroxyphenylpyruvate dioxygenase, sequence (P32754 whole entry): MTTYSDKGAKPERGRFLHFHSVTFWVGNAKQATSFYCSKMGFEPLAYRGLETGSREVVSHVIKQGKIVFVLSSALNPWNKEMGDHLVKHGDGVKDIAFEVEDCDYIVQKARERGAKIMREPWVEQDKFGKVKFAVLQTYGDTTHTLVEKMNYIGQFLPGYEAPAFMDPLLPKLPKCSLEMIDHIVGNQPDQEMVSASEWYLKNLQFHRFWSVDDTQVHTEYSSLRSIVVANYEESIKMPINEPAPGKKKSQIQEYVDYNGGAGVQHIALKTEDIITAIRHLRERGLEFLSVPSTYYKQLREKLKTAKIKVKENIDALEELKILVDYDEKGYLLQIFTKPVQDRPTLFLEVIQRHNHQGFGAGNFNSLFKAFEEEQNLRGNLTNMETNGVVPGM

For the compound `CCCCn1c(=O)n(C)c2ccc(C(=O)c3cnn(C)c3O)cc21`, the IC50 was determined as 170 nM.

Turning to `Cn1ncc(C(=O)c2ccc3c(c2)n(C(C)(C)C)c(=O)n3C)c1O`, the IC50 came out at 100 nM. The result for `Cc1ccc(-n2c(=O)n(C)c3ccc(C(=O)c4cnn(C)c4O)cc32)cc1` reads 250 nM; that for `CCCn1c(=O)n(CC)c2cc(C(=O)c3cnn(C)c3O)ccc21`, 39 nM; that for `Cc1nn(C)c(O)c1C(=O)c1ccc2c(c1)n(CC(C)C)c(=O)n2C`, 2710 nM.

Consider `Cc1nn(C)c(O)c1C(=O)c1ccc2c(c1)n(Cc1ccccc1)c(=O)n2C`, for which the IC50 came out at 670 nM.

Usually IC50 stands for the concentration that inhibits the measured activity by half.

The record behind these values is ChEMBL document CHEMBL3407412, “Synthesis and bioevaluation of pyrazole-benzimidazolone hybrids as novel human 4-Hydroxyphenylpyruvate dioxygenase inhibitors” (Eur J Med Chem, 2015).
